Results from patent publication US9126060B2, “Cosmetic use of geranylgeranyl-2-propanol” (SEDERMA, priority 2010, dated 2015).

Legend:
[1] = Lipidic peroxidation of liposomes by UVA (conjugated dienes at 233 nm); format: biochemical
From the text: Principle: Cell membranes are composed of oxidable phospholipids. Using a cell-free model (unsaturated phospholipids based liposomes) and a reproducible oxidative stress (UVA radiation), it is possible to follow spectrophotometrically (at 233 nm) the formation of early by-products of lipoperoxidation that are conjugated dienes. An anti-lipoperoxidant agent can reduce or even eliminate this phenomenon.

human fibroblasts = assay: Lipidic peroxidation of fibroblast cellular membranes after UVA stress (MDA, TBARS method); format: cell-based; details: for MDA concentration: post UVA stress
Method: Principle: human fibroblasts are grown to confluence and then placed or not in contact with the GGP for 72 hours. Following this contact, the GGP is removed and the cells are exposed to oxidative stress (UVA). After a further incubation with or without the GGP, malonaldehyde (MDA) is determined by the TBARS method (Thiobarbituric Acid Reactive Substances) and the value obtained divided by the amount of cellular protein.

stratum corneum = assay: Ex vivo lipoperoxidation of stratum corneum extracts from volunteers (8-isoprostanes ELISA); format: in vivo, human; details: cream containing 0.04% of GGP 2 times daily for 2 months on forearm; compared with placebo extracts; H2O2/FeCl2 stress; 13 volunteers
From the text: Lipids of the stratum corneum are the primary targets of free radical aggressions. Thus, it seemed interesting to test the antiradical capacity of the GGP in ex vivo condition on extracts of stratum corneum from volunteers who applied for 2 months, on one arm a placebo cream and on the other arm the GGP cream (Formulation 2/2 in the examples given above). These extracts are stressed to oxidize lipids. A lower oxidation in skin extracts which were in contact with the GGP is seeked.
Principle: 13 volunteers have applied 2 times daily for 2 months in a randomized manner the cream containing 0.04% of GGP on one forearm. The placebo cream was applied controlateral. Each subject was therefore their own control. At T0 and T2, specimens of stratum corneum were taken on the 2 arms with 3 adhesive discs per aim, and for each disk 15 take off (saturation of the disk).
The disks were stored at −20° C. until lipoperoxidation testing. After rapid thawing at room temperature, the 3 discs from the same arms were collected and sonicated in a suitable diluent, to take off and recover the maximum amount of stratum corneum samples. The resulting suspension was then stressed overnight at 45° C., using a H2O2/FeCl2 solution. The lipid peroxidation was assessed by measuring 8-isoprostanes (ELISA assay). The data were normalized using a protein assay.

[2] = tested on: Normal human dermal fibroblasts; assay: Mean telomere length of fibroblasts in natural senescence (real-time quantitative PCR); format: cell-based; details: 1.65 ppm
From the text: The applicant has performed the average length measurement of the telomeres of a culture by a rapid method using PCR (Polymerase Chain Reaction) real-time quantitative.
This method relies on the use of two oligonucleotide primers specific of the telomeric repeat sequence (TTAGGG) and thus capable of hybridizing themselves to each of the two complementary strands of telomeric DNA, and then able to be amplified during the PCR cycles proportionally to the average length of telomeres of the genomic DNA of a given culture. A fluorescent molecule, intercalated into DNA double strand, is used to quantify the phenomenon (hybridization+amplification) at the end of each cycle. The parameter for evaluating the significance of this phenomenon is the Ct, cycle number of hybridization amplification necessary to reach a given fluorescence threshold above background noise.
Each Ct will be converted into an average length of telomeres, with a reference range obtained with successive dilutions from a standard solution of a synthetic oligonucleotide of 84 bases, consisting of 14 repeats of the TTAGGG sequence, each of these dilutions (or point range) being subjected to real-time quantitative PCR.
To be accurate, the assessment must take into account the number of genomes present. The latter will be appreciated by a PCR conducted in parallel with a control gene, 36B4, encoding a ribosomal phosphoprotein with two primers (oligonucleotides) specific for this gene. The Ct obtained in this PCR will be converted into a number of genomes using a standard range made from an oligonucleotide of 75 bases, representing the amplicon obtained with primers specific to 36B4.
Therefore is obtained for each total DNA extracts from a given culture, an average length of telomere per genome.
Principle: Normal human dermal fibroblasts are grown on several cell passages, in contact or not with the GGP until a strong slowdown and little or not proliferative cells. At this stage, cultures are stopped, DNA extracted and the average telomere length measured for each culture.

collagen I = assay: Collagen I synthesis in presenescent fibroblasts (immunofluorescence, image analysis); format: cell-based, human; details: for collagen I: senescent cells, 11 days, n = 20 photos
Method: Principle: The collagen I synthesis was monitored in pre-senescent human dermal fibroblasts. These cells were cultured for 11 days with the GGP in a growth medium. Following this incubation, the cell layers were fixed and labeled by immunofluorescence, to visualize the network of collagen I and to quantify by image analysis on photographs. In parallel, quantification was performed on proliferating cells.

decorin = assay: Decorin biosynthesis in fibroblast culture (ELISA); format: cell-based, human; details: for Decorin: 3 days, n = 5
Method: Principle: Normal human fibroblasts were brought to confluence, then contacted or not with GGP at 3, 5 or 7 ppm for 3 days. After this incubation, decorin content was assayed by ELISA in cell homogenates, and then divided by the number of cells.

human melanocytes = assay: Melanin content of human melanocytes; format: cell-based; details: for Melanin content: 5 days, n = 4
Method: Principle: Human melanocytes are seeded and placed in contact with the GGP for 5 days. After incubation, the residual tyrosinase activity and total melanin content were measured in cell homogenates, and then divided by the number of cells (melanin) or to the protein amount (tyrosinase).

nidogen 1 = assay: Nidogen 1 biosynthesis in fibroblast culture (ELISA); format: cell-based, human; details: 3 days, n = 5
Method: Principle: Normal human fibroblasts were brought to confluence, then placed or not in contact with the GGP, at 1 or 2.5 ppm, for 3 days. After this incubation the nidogen 1 content is determined by ELISA in cell homogenates, and divided by the number of cells.

## CC(C)=CCC/C(C)=C/CC/C(C)=C/CC/C(C)=C/CCC(C)O (stereo not shown) [GGP, 6,10,14,18-tetramethylnonadeca-5,9,13,17-tetraen-2-ol]
[1]; 8 ppm
  % of peroxidation inhibition: 14%
[1]; 26 ppm
  % of peroxidation inhibition: 24%
[1]; 80 ppm
  % of peroxidation inhibition: 75%
Human fibroblasts; 3 ppm
  % Change of MDA vs post-stress control: −20%; p < 0.01
  MDA concentration: 881 +/− 36 nM/mg protein
Human fibroblasts; 5 ppm
  % Change of MDA vs post-stress control: −34%; p < 0.01
  MDA concentration: 727 +/− 39 nM/mg protein
Human fibroblasts; 7 ppm
  % Change of MDA vs post-stress control: −53%; p < 0.01
  MDA concentration: 515 +/− 11 nM/mg protein
Stratum corneum
  level of protection against oxidation: +44%
[2]; presenescent cells, n = 3
  Mean telomere length: 8.35 +/− 0.75 kb/genome
[2]; vs presenescent control
  protection against natural telomere erosion (length vs control): +1.45 kb →
[2]; vs proliferative cells
  Telomere erosion due to aging: −2.31 kb; nsd kb/genome
Collagen I; 3 ppm
  Change (%) of collagen I vs senescent cells: +367%; p < 0.01
  collagen I: 280 +/− 220 UFA/10^4 cell
Collagen I; 5 ppm
  Change (%) of collagen I vs senescent cells: +483%; p < 0.01
  collagen I: 350 +/− 290 UFA/10^4 cell
decorin; 3 ppm
  Change (%) of decorin vs control: +15%; p < 0.03
  Decorin: 47578 +/− 3587 pg/10^6 cell
decorin; 5 ppm
  Change (%) of decorin vs control: +32%; p < 0.01
  Decorin: 54419 +/− 4697 pg/10^6 cell
decorin; 7 ppm
  Change (%) of decorin vs control: +41%; p < 0.01
  Decorin: 58168 +/− 5912 pg/10^6 cell
Human melanocytes; 1 ppm
  Change (%) of melanin content vs control: −4%; nsd
  Melanin content: 46.6 +/− 2.4 μg/mL/10^6 cell
Human melanocytes; 3 ppm
  Change (%) of melanin content vs control: −36%; p < 0.01
  Melanin content: 31.3 +/− 1.4 μg/mL/10^6 cell
Human melanocytes; 5 ppm
  Change (%) of melanin content vs control: −59%; p < 0.01
  Melanin content: 20.2 +/− 1.3 μg/mL/10^6 cell
Nidogen 1; 1 ppm
  Stimulation % of nidogen 1 biosynthesis: +28%
Nidogen 1; 2.5 ppm
  Stimulation % of nidogen 1 biosynthesis: +94%
